From PubChem BioAssay AID2060887 (Molecular Pharmacology Branch, DTP, NCI, 2025)

Test system: 782815-120-R-J1-PDC complex spheroid viability
Test: Anticancer human tumor 782815-120-R-J1-PDC patient-derived colon adenocarcinoma cell line growth inhibition [RAS]
Settings: for IC50: curve of first compound; for viability, T/C: stronger effect = lower value
Procedure, shortened: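 Tumour cells grown as complex spheroids with HUVEC endothelial cells and mesenchymal stem cells, treated with RAS pathway inhibitor combinations. Each agent spans half-log steps from near clinical Cmax, or 10 microM where Cmax is unknown.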

[1] = second compound 0.000949 µM, first compound 0.0316 µM
[2] = second compound 0.000949 µM, first compound 0.1 µM
[3] = second compound 0.000949 µM, first compound 0.316 µM
[4] = second compound 0.000949 µM, first compound 1 µM
[5] = second compound 0.000949 µM, first compound 3.16 µM
[6] = second compound 0.000949 µM, first compound 10 µM
[7] = second compound 0.003 µM, first compound 0.0316 µM
[8] = second compound 0.003 µM, first compound 0.1 µM
[9] = second compound 0.003 µM, first compound 0.316 µM
[10] = second compound 0.003 µM, first compound 1 µM
[11] = second compound 0.003 µM, first compound 3.16 µM
[12] = second compound 0.003 µM, first compound 10 µM
[13] = second compound 0.00949 µM, first compound 0.0316 µM
[14] = second compound 0.00949 µM, first compound 0.1 µM
[15] = second compound 0.00949 µM, first compound 0.316 µM
[16] = second compound 0.00949 µM, first compound 1 µM
[17] = second compound 0.00949 µM, first compound 3.16 µM
[18] = second compound 0.00949 µM, first compound 10 µM
[19] = second compound 0.03 µM, first compound 0.0316 µM
[20] = second compound 0.03 µM, first compound 0.1 µM
[21] = second compound 0.03 µM, first compound 0.316 µM
[22] = second compound 0.03 µM, first compound 1 µM
[23] = second compound 0.03 µM, first compound 3.16 µM
[24] = second compound 0.03 µM, first compound 10 µM
[25] = second compound 0.0949 µM, first compound 0.0316 µM
[26] = second compound 0.0949 µM, first compound 0.1 µM
[27] = second compound 0.0949 µM, first compound 0.316 µM
[28] = second compound 0.0949 µM, first compound 1 µM
[29] = second compound 0.0949 µM, first compound 3.16 µM
[30] = second compound 0.0949 µM, first compound 10 µM
[31] = second compound 0.3 µM, first compound 0.0316 µM
[32] = second compound 0.3 µM, first compound 0.1 µM
[33] = second compound 0.3 µM, first compound 0.316 µM
[34] = second compound 0.3 µM, first compound 1 µM
[35] = second compound 0.3 µM, first compound 3.16 µM
[36] = second compound 0.3 µM, first compound 10 µM
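Further: spheroids exposed to compounds for 7 days before reading.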
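Wherever viability, T/C is given: 100% = DMSO vehicle control viability.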

CC1(O)CCCC1n1c(=O)c(C(F)F)cc2cnc(NC3CCN(S(C)(=O)=O)CC3)nc21 (centres undefined) + CCn1c(-c2cccnc2C(C)OC)c2c3cc(ccc31)N1CCOC(CC(NC(=O)C(C(C)C)N(C)C(=O)C3(F)CCN(C(=O)C#CC(C)(C)N(C)C)CC3)C(=O)N3CCCC(N3)C(=O)OCC(C)(C)C2)C1
IC50 (second compound 0.000949 µM): 4.5 µM
IC50 (second compound 0.003 µM): 4.63 µM
IC50 (second compound 0.00949 µM): 4.04 µM
IC50 (second compound 0.03 µM): 4.5 µM
IC50 (second compound 0.0949 µM): 4.86 µM
IC50 (second compound 0.3 µM): 4.29 µM
viability, T/C [1]: 61.7%
viability, T/C [2]: 57.9%
viability, T/C [3]: 65.8%
viability, T/C [4]: 63%
viability, T/C [5]: 61.5%
viability, T/C [6]: 23.8%
viability, T/C [7]: 63.4%
viability, T/C [8]: 64.5%
viability, T/C [9]: 63.5%
viability, T/C [10]: 54.9%
viability, T/C [11]: 65.2%
viability, T/C [12]: 25.2%
viability, T/C [13]: 57.6%
viability, T/C [14]: 55.1%
viability, T/C [15]: 64.3%
viability, T/C [16]: 70.3%
viability, T/C [17]: 55%
viability, T/C [18]: 24%
viability, T/C [19]: 69.3%
viability, T/C [20]: 53.7%
viability, T/C [21]: 69.1%
viability, T/C [22]: 61.9%
viability, T/C [23]: 61.3%
viability, T/C [24]: 24.8%
viability, T/C [25]: 67%
viability, T/C [26]: 59.5%
viability, T/C [27]: 70.3%
viability, T/C [28]: 65.2%
viability, T/C [29]: 71.1%
viability, T/C [30]: 22%
viability, T/C [31]: 66.7%
viability, T/C [32]: 50.9%
viability, T/C [33]: 58%
viability, T/C [34]: 69.2%
viability, T/C [35]: 61.5%
viability, T/C [36]: 18.7%

CCC(CC)c1cc(NC2CCC(N)C2)n2nccc2n1 (centres undefined) + CCn1c(-c2cccnc2C(C)OC)c2c3cc(ccc31)N1CCOC(CC(NC(=O)C(C(C)C)N(C)C(=O)C3(F)CCN(C(=O)C#CC(C)(C)N(C)C)CC3)C(=O)N3CCCC(N3)C(=O)OCC(C)(C)C2)C1
IC50 (second compound 0.000949 µM): 2.93 µM
IC50 (second compound 0.003 µM): 3.08 µM
IC50 (second compound 0.00949 µM): 2.86 µM
IC50 (second compound 0.03 µM): 2.74 µM
IC50 (second compound 0.0949 µM): 2.85 µM
IC50 (second compound 0.3 µM): 2.36 µM
viability, T/C [1]: 98.6%
viability, T/C [2]: 90.5%
viability, T/C [3]: 103%
viability, T/C [4]: 100%
viability, T/C [5]: 46.6%
viability, T/C [6]: 2.15%
viability, T/C [7]: 97.9%
viability, T/C [8]: 92.7%
viability, T/C [9]: 97.4%
viability, T/C [10]: 96.8%
viability, T/C [11]: 48.9%
viability, T/C [12]: 1.8%
viability, T/C [13]: 101%
viability, T/C [14]: 102%
viability, T/C [15]: 95.9%
viability, T/C [16]: 102%
viability, T/C [17]: 45.1%
viability, T/C [18]: 2.14%
viability, T/C [19]: 94.2%
viability, T/C [20]: 96.5%
viability, T/C [21]: 103%
viability, T/C [22]: 108%
viability, T/C [23]: 42.8%
viability, T/C [24]: 2.25%
viability, T/C [25]: 97.6%
viability, T/C [26]: 99%
viability, T/C [27]: 97.4%
viability, T/C [28]: 106%
viability, T/C [29]: 45%
viability, T/C [30]: 2.54%
viability, T/C [31]: 91.9%
viability, T/C [32]: 92.6%
viability, T/C [33]: 94.3%
viability, T/C [34]: 101%
viability, T/C [35]: 34.9%
viability, T/C [36]: 3.21%
